Reference: PMC11093748, “De novo identification of CD4^+ T cell epitopes” (Nature Methods, 2024)

How the values were obtained:
Assay in all cases: I-Ag7 SABR-II library screen, enrichment score
Type in all cases: cell-based, mouse
4-8Ins TCR = system: 4-8Ins TCR
How it was run: (§1)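 NFAT–GFP Jurkat cells expressing an I-Ag7 SABR-II library of 4,075 islet-derived epitopes, CellTrace Violet-labelled, were co-incubated 16–20 h with equal numbers of TCR-expressing Jurkat cells. The top 1–2% GFP+CD69+ cells were sorted and epitopes sequenced, in triplicate. Enrichment score = measured minus expected abundance, from linear regression on unsorted library counts.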

BDC2.5 TCR = settings: for Enrichment score: I-Ag7 library; for Enrichment score EXPT1 / Enrichment score EXPT2 / Enrichment score EXPT3 / Enrichment score EXPT5 / Enrichment score EXPT7 / Enrichment score EXPT8: sheet Fig 1F, whole library; for Enrichment score EXPT1: independent biological experiment 1 of 8; for Enrichment score EXPT2: independent biological experiment 2 of 8; for Enrichment score EXPT3: independent biological experiment 3 of 8; for Enrichment score EXPT5: independent biological experiment 5 of 8; for Enrichment score EXPT7: independent biological experiment 7 of 8; for Enrichment score EXPT8: independent biological experiment 8 of 8
How it was run: as §1

TCR11 = settings: TCR11; TCR_Mean minus PREDICTED_TCR (from LIB_Mean, SLOPE 0.869084, INTERCEPT 3.21267e-5); PZ51
Description: (§2) We then asked whether SABR-IIs could be used to present a library of epitopes for CD4^+ T cell antigen discovery. To that end, we constructed a SABR-II library to present epitopes derived from pancreatic islets in I-Ag7 by curating a list of 4,075 published epitopes from the Immune Epitope Database (iedb.org)[50] and a study by Wan et al.[51] (Supplementary Table 1). Of note, this defined library consisted of unmodified epitopes from endogenous proteins, synthetic mimotopes, deamidated epitopes and hybrid insulin peptides (HIPs) that arise from post-translational fusion and are not genetically encoded in vivo[52],[53]. The epitope library was inserted into the I-Ag7 SABR-II backbone through pooled oligonucleotide synthesis, amplification and ligation-free cloning (Extended Data Fig. 3a). The I-Ag7 SABR-II-library was then expressed in NFAT–GFP Jurkat cells. We confirmed that after sequencing, the library accounted for a mean of 708 reads per epitope (Extended Data Fig. 3b). As a proof of concept, we performed co-incubation assays with Jurkat cells expressing the BDC2.5 TCR and sorted the top 1–2% of GFP^+CD69^+ cells at a rate of ~20 min per replicate with three replicates per TCR. We extracted the genomic DNA from sorted cells, amplified the SABR portion of the integrated proviruses and subjected the amplicons to Illumina sequencing (Extended Data Fig. 3c,d). The 1–2% sort gate represents >50-fold enrichment of cognate epitopes with minimal loss of signal (Extended Data Fig. 3e–h). Sequence reads were aligned to the I-Ag7 SABR-II backbone and the corresponding epitopes were scored based on their read counts. For each TCR under investigation, an enrichment score (ES) was determined for all the epitopes in a library. In each experiment, three replicates of a sort with TCR-expressing Jurkat cells were performed and reads were counted post-sequencing. In addition, three replicates of the unsorted library were also sequenced. A linear regression model was built using the unsorted library counts and used to determine the expected abundance of each epitope in the library. The ES was calculated based on the difference between the measured and the expected abundance of each epitope on a per-TCR basis (Fig. 1e). Based on ES values, two quantitative thresholds were used to determine putative cognate epitopes of a given TCR. A high-confidence zone containing clear outliers with a high ES and a low-confidence zone containing weak outliers with a moderately high ES were determined (Fig. 1e). This two-tiered strategy was used to call putative hits from screens. All the top-scoring epitopes for the BDC2.5 TCR were known BDC2.5 ligands containing the WXRM(D/E) motif (Fig. 1f,g, enriched ligands in red), a well-characterized trait of the BDC2.5 TCR[43],[54]–[56]. Across several independent experiments there was limited variation in ES values for the same TCRs and several epitopes fell into high- or low-confidence zones consistently (Extended Data Fig. 4a). Using a different TCR that was isolated from NOD mice, 4-8Ins[57], which recognized the InsB9:23 epitope ([…]), we observed a similar pattern of ES for cognate epitopes (Extended Data Fig. 4b).
(§3) We performed systematic screening of the cloned TCRs against the I-Ag7 SABR-II library. Several TCRs along with a positive control (such as BDC2.5 or 4-8Ins) were screened individually against the library for each sort (Extended Data Fig. 6a and Supplementary Table 4). High- and low-confidence ES zones for each screened TCR were defined by the ES values of the control TCR’s cognate epitopes. For all putative cognate epitopes, single SABR-IIs were constructed, expressed in NFAT–GFP Jurkat cells and used for co-incubation with the corresponding TCRs. Co-incubation assays that yielded a GFP signal higher than that obtained in assays with no TCR were determined to be positive and the epitopes deemed true cognate ligands (Extended Data Fig. 6b,c). […]

TCR15 = settings: TCR15; TCR_Mean minus PREDICTED_TCR (from LIB_Mean, SLOPE 0.918454, INTERCEPT 2.00113e-5); PZ37
Description: as §2, §3

TCR23 = system: TCR23
Description: as §2, §3

TCR24 = settings: TCR_Mean minus PREDICTED_TCR (slope 0.96363, intercept 8.9252e-6 on LIB_Mean), TCR 24, run PZ98
Description: as §2, §3

TCR30 = settings: TCR_Mean minus PREDICTED_TCR (slope 0.934363, intercept 1.61073e-5 on LIB_Mean), TCR 30, run PZ98
Description: as §2, §3

TCR37 = settings: TCR_Mean minus PREDICTED_TCR (slope 0.904637, intercept 2.34021e-5 on LIB_Mean), TCR 37, run PZ57
Description: as §2, §3

TCR4 = settings: sheet TCR4-PZ44; ES = TCRObserved - TCRPredicted; TCRPredicted = LIBObserved x SLOPE + INTERCEPT; SLOPE 0.903208, INTERCEPT 2.37527e-5
Description: as §2, §3

[1] = EXPT1 of 3 biological experiments
[2] = EXPT1 of 8 biological experiments
[3] = one biological experiment (Ext. Data Fig. 6B)
[4] = I-Ag7 library, one biological experiment
[5] = TCR_Mean minus PREDICTED_TCR (slope 0.987149, intercept 3.15366e-6 on LIB_Mean), TCR 23, run PZ56

Sequence	Enrichment score (4-8Ins TCR; [1])	Enrichment score (4-8Ins TCR; EXPT2 of 3)	Enrichment score (4-8Ins TCR; EXPT3 of 3)	Enrichment score (BDC2.5 TCR; [2])	Enrichment score (BDC2.5 TCR; EXPT2 of 8)	Enrichment score (BDC2.5 TCR; EXPT3 of 8)	Enrichment score (BDC2.5 TCR; EXPT4 of 8)	Enrichment score (BDC2.5 TCR; EXPT6 of 8)	Enrichment score (BDC2.5 TCR; EXPT7 of 8)	Enrichment score (BDC2.5 TCR; EXPT8 of 8)	Enrichment score (BDC2.5 TCR; [3])	Enrichment score EXPT1 (BDC2.5 TCR)	Enrichment score EXPT2 (BDC2.5 TCR)	Enrichment score EXPT3 (BDC2.5 TCR)	Enrichment score EXPT5 (BDC2.5 TCR)	Enrichment score EXPT7 (BDC2.5 TCR)	Enrichment score EXPT8 (BDC2.5 TCR)	Enrichment score (TCR11)	Enrichment score (TCR15)	Enrichment score (TCR23; [4])	other results
AKAAVEEGIVAGGGV	-1.842e-5	0.0001302	-6.807e-5	-0.0001132	-8.351e-5	-9.939e-5	5.807e-5	0.0001711	8.834e-6	1.023e-7	-9.939e-5	-8.351e-5	-0.0001132	-9.939e-5	0.0002581	8.834e-6	1.023e-7	0.0001401	1.733e-5	-2.11e-5	Enrichment score (TCR23; [5]): -9.2e-5; Enrichment score (TCR24): 2.968e-5; Enrichment score (TCR30): 8.616e-5; Enrichment score (TCR37): -6.503e-5; Enrichment score (TCR4): -0.0001441
ALVREGLRNVAAGANP	-1.064e-5	-1.266e-5	-8.85e-6	-1.509e-5	-2.732e-5	-2.567e-5	-1.199e-5	-1.468e-5	-1.252e-5	-2.71e-5	-2.567e-5	-2.732e-5	-1.509e-5	-2.567e-5	-3.182e-5	-1.252e-5	-2.71e-5	-3.213e-5	-2.061e-5	-1.174e-5	Enrichment score (TCR23; [5]): -3.805e-6; Enrichment score (TCR24): -8.9252e-6; Enrichment score (TCR30): -1.611e-5; Enrichment score (TCR37): -2.34e-5; Enrichment score (TCR4): -2.375e-5
